The text below walks through data of patent publication US20240043860A1, “NOVEL HYDROXYPHENYLPYRUVATE DIOXYGENASE POLYPEPTIDES AND METHODS OF USE THEREOF” (Syngenta Crop Protection AG, priority 2020, published 2024).

By IC50 is commonly meant the point on the concentration scale where inhibition reaches its midpoint.

For test [1], the target named is HPPD variant AVESA V201 (SEQ ID NO: 8) (Avena sativa, UniProt A0ACD5V6K6, A327R/G411A/I340E/L359M/V218I/V260A). The test is classed as biochemical. To be noted: AVESA V201, SEQ ID NO: 8. The protocol:
(§1) 25 ul of the overnight cultures were inoculated into fresh 96-deepwell block containing 1 ml Formedium Autoinduction Media (AIM). The AIM cultures were grown for 3h at 37° C. (900rpm) and then transferred to 20° C. overnight (900rpm) to allow protein expression. The overnight cultures were centrifuged and 500 ul of Cellytic B (Sigma Aldrich) was added to resuspend the cell pellets. The coupled HGO assay (Siehl et al, 2014) is used to generate IC50 values for the HPPD variants of interest.
E. coli BL21 (DE3) cells were transformed with a pET24a vector containing a C-terminally his-tagged Arabidopsis HGO gene, grown and induced overnight as described for the HPPD variants above. The cell pellet was resuspended in phosphate buffered saline at pH 7.4 containing 10% Glycerol, 1mm Tris[2-carboxyethyl] phosphine-HCl (TCEP) plus 30 mM Imidazole and lysed using lysozyme/benzonase. The extract was clarified by low speed centrifugation and purified in the same buffer down a 1 ml His Gravitrap column. The bound HGO was eluted in 0.25M imidazole and the fractions pooled and beaded into liquid nitrogen. All procedures apart from the centrifugation and beading steps were carried out under a nitrogen atmosphere.
The coupled HGO assay is carried out by adding 10 ul of HPPD extract to a 96-well plate and then adding 40 ul of reaction buffer (50 mM Bis Tris Propane, pH7.0, 25 mM sodium-L-ascorbate, 400μM mercaptoethanol, 50 μM Fe(II)SO4). The plates are left to incubate for 5 minutes on ice. […] 200 ul of HPP/HGO (197 μM hydroxyphenylpyruvic acid, 16 μl/ml Homogentisic Acid Oxidase in reaction buffer as described above) buffer is then added to the well and the reaction is regularly monitored (e.g. every 30 seconds-5 minutes) for absorbance at 330 nm for a given time period (e.g., for between 15-60 minutes). The data can then be used to calculate the IC50 value for each HPPD variant of interest.

Test [2] has as its system transgenic tobacco plants expressing mutant HPPD SEQ ID NO: 9. Kind of test: spray test, herbicidal damage scoring. The test is classed as in vivo. On the procedure: Avena sativa HPPD or orthologues and variants thereof, for example SEQ IDs 1-63 and 122-127, were expressed in transgenic tobacco. DNA sequences that encode these polypeptides (optimized for tobacco or, optionally, codon optimized according to a target crop such as soybean) were prepared synthetically. Each sequence was designed to include a 5′ fusion with TMV omega 5′ leader sequence such that they are flanked at the 5′ end with XhoI and at the 3′ end with KpnI to facilitate direct cloning into a suitable binary vector for Agrobacterium-based plant transformation.
In one example, the TMV omega 5′ leader and a HPPD encoding gene of interest is excised using XhoI/KpnI and cloned into similarly digested binary vector pBIN 19 (Bevan, Nucl. Acids Res. (1984) behind a double enhanced 35S promoter ahead of a NOS 3′ transcription terminator and then transformed into E. coli DH5 alpha competent cells. DNA recovered from the E. coli is used to transform Agrobacterium tumefaciens LBA4404, and transformed bacteria are selected on media contain rifampicin and kanamycin. Tobacco tissue is subjected to Agrobacterium-mediated transformation using methods well described in the art or as described herein. For example, a master plate of Agrobacterium tumefaciens containing the HPPD expressing the binary vector is used to inoculate 10 ml LB (L broth) containing 100 mg/l Rifampicin plus 50 mg/l Kanamycin using a single bacterial colony. This is incubated overnight at 28° C. shaking at 200 rpm. This entire overnight culture is used to inoculate a 50 ml volume of LB containing the same antibiotics. Again this is cultured overnight at 28° C. shaking at 200 rpm. […]
Plants are assessed for damage and scored at, for example, 7 and 14 days after treatment (DAT). […]
Plants of events showing the least damage are grown to flowering, then bagged and allowed to self. […] Single copy events amongst the Ti plant lines are identified by their 3:1 segregation ratio (with respect to kanamycin and/or herbicide) and by quantitative RT-PCR. […] HPPD expression levels were monitored by Western analysis. […]

The test system of test [3] is transgenic tobacco plants expressing mutant HPPD SEQ ID NO: 125. Kind of test: spray test, herbicidal damage scoring. In kind it is in vivo.
Test [4] concerns the target HPPD variant AVESA V200 (SEQ ID NO: 5) (Avena sativa, UniProt A0ACD5V6K6, A327R/I340E/L359M/V218I/V260A). Description: biochemical. On the procedure:
as §1
E. coli BL21 (DE3) cells were transformed with a pET24a vector containing a C-terminally his-tagged Arabidopsis HGO gene, grown and induced overnight as described for the HPPD variants above. […]
The coupled HGO assay is carried out by adding 10 ul of HPPD extract to a 96-well plate and then adding 40 ul of reaction buffer (50 mM Bis Tris Propane, pH7.0, 25 mM sodium-L-ascorbate, 400μM mercaptoethanol, 50 μM Fe(II)SO4). […] 200 ul of HPP/HGO (197 μM hydroxyphenylpyruvic acid, 16 μl/ml Homogentisic Acid Oxidase in reaction buffer as described above) buffer is then added to the well and the reaction is regularly monitored (e.g. every 30 seconds-5 minutes) for absorbance at 330 nm for a given time period (e.g., for between 15-60 minutes). […]

Where “and” joins values, the source holds several entries; their conditions need not be identical. Equal entries are not always repeated. Bounds are passed on as bounds.

Chain of HPPD variant AVESA V201 (SEQ ID NO: 8) (A0ACD5V6K6 entry or part of it V218I/V260A/A327R/I340E/L359M/G411A): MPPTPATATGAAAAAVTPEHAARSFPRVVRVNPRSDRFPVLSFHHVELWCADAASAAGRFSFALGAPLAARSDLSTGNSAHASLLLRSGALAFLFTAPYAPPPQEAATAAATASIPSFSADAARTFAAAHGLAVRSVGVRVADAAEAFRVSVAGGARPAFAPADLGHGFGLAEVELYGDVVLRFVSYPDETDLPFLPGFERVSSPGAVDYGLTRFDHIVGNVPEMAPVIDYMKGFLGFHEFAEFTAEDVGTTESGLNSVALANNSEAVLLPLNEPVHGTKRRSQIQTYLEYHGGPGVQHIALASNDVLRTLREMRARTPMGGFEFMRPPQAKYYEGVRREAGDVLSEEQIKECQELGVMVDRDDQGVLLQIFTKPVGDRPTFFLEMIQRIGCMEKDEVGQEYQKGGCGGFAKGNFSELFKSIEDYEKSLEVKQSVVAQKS
Chain of HPPD variant AVESA V200 (SEQ ID NO: 5) (A0ACD5V6K6 entry or part of it V218I/V260A/A327R/I340E/L359M): as the sequence (A0ACD5V6K6 entry or part of it V218I/V260A/A327R/I340E/L359M/G411A) above, with A411G counted along it

For `COc1ccc(-n2nc(C)cc(C(=O)C3C(=O)CCCC3=O)c2=O)cc1OC` [Herbicide C, dioxopyritrione], in test [1], the IC50 is 890 nM. Besides, the tolerance result is “display tolerance” in test [2] (SEQ ID 9 plants, 100 g/ha (Table 3.4)) and “display tolerance” in test [3] (SEQ ID 125 plants, 100 g/ha (Table 3.4)). In addition, the “tolerance compared to plants expressing SEQ ID 125” value in test [2] (SEQ ID 9 plants, 200 g/ha (Table 3.4)) was “higher tolerance”. Moreover, the “herbicidal damage scoring, Herbicide C (200 g/ha)” value in test [3] (Table 3.4, 14 days after treatment, SEQ ID 125, 100=complete death, 0=no damage, one value per event) was 60 and 80 and 75 and 85.

As to `Cn1nnnc1NC(=O)c1ccc(C(F)(F)F)nc1-n1cncn1` [Herbicide D, N-(1-methyltetrazol-5-yl)-2-(1,2,4-triazol-1-yl)-6-(trifluoromethyl)pyridine-3-carboxamide], the IC50 in test [4] is 63.2 µM. Besides, in test [2] (2000 g/ha, SEQ ID 9 plants compared to plants expressing SEQ IDs 122, 124 or 125), the damage entry was “significantly reduced damage”.

In turn, bicyclopyrone gave an IC50 in test [1] of more than 500000 nM.
